Among the test systems are DMS-114; XF498; SNB-78; DLD-1; RXF 631; KM-20L2; LXFL 529; DMS-273; HOP-18.
Common to all, as to assay: inhibition of tumour cell growth, NCI panel, 48 h

Molecules are shown by their SMILES. Several values for one entry are separate records, joined by “and”; a condition that tells them apart may be missing. Identical values can stand only once.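 Cultured in 96-well plates, cells were exposed to test compound for 48 hours across five concentrations. The concentration for 50% growth inhibition is given as GI50.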 Activity calls are given as the source filed them. Cut-off read from the data, not from the text of the source: active = GI50 up to about 1.1 µM and inactive = higher.

We go through 26 compounds from ChEMBL document CHEMBL1201862, “PubChem BioAssay data set” (2004).

For the compound `C[N+](C)(C)C1CC([N+](C)(C)C)C2c3ccccc3C21` (configuration not stated), the GI50 with DMS-114, in the assay with XF498, in the assay with SNB-78, in the assay on DLD-1, with RXF 631 and with KM-20L2 was > 100 µM (inactive) each time. For the same compound, the GI50 in the assay on LXFL 529 and in the assay on DMS-273 was > 100 µM (inactive) each time.
As for `C/C(=N/O)c1ccc2c(c1)/C(=N/O)c1cc(/C(C)=N/O)ccc1-2`, the GI50 was 22.4 µM (inactive) in the assay on DMS-114; 14.1 µM (inactive) in the assay on HOP-18; 21.8 µM (inactive) in the assay with XF498; 17.5 µM (inactive) in the assay on SNB-78; 16.1 µM (inactive) with DLD-1; 17.4 µM (inactive) in the assay on KM-20L2. Besides, the results for the GI50 in the assay on LXFL 529 and in the assay with DMS-273 were 14.3 µM (inactive) and 23.8 µM (inactive), respectively.
For `O=[N+]([O-])c1cc(/C=N/NS(=O)(=O)c2ccc(F)cc2)c(O)c([N+](=O)[O-])c1`, the GI50 was 32.2 µM (inactive) in the assay with DMS-114; 85.3 µM (inactive) in the assay with HOP-18; 52.6 µM (inactive) with SNB-78; 51.3 µM (inactive) in the assay on DLD-1; 25.9 µM (inactive) in the assay with KM-20L2; 30.8 µM (inactive) in the assay on DMS-273.
With `CC1=CC(=C(c2ccc(N)c(C)c2)c2ccc(N)c(C)c2)C=CC1=N`, the GI50 in the assay with DMS-114 was 1.2 µM (inactive); in the assay on XF498, 2.91 µM (inactive); with SNB-78, 4.84 µM (inactive); with DLD-1 it was 3.78 µM (inactive); in the assay with KM-20L2 it was 3.33 µM (inactive); in the assay on LXFL 529, 1.27 µM (inactive). In the assay with DMS-273, the GI50 was 2.45 µM (inactive).
Consider `O=C1C(=Cc2ccc(F)cc2)C(=O)c2ccccc21`, for which the GI50 in the assay on DMS-114, with XF498, in the assay on DLD-1, with RXF 631, with KM-20L2 and in the assay with LXFL 529 was > 100 µM (inactive) throughout. Besides, in the assay on DMS-273, the GI50 is > 100 µM (inactive).
Turning to `Cc1ccc(S(=O)(=O)SC/C=C\CSS(=O)(=O)c2ccc(C)cc2)cc1`, the GI50 in the assay on XF498 was 38.5 µM (inactive) and 23.4 µM (inactive); with SNB-78, 25.9 µM (inactive) and 27.2 µM (inactive); in the assay with DLD-1 it was 22.1 µM (inactive) and 29.1 µM (inactive); in the assay on KM-20L2, 23.2 µM (inactive) and 23.3 µM (inactive).
As for `COc1ccc(C(=O)C(CC2C(=O)NC(=O)NC2=O)c2ccc(OC)cc2)cc1` (configuration not stated), the GI50 in the assay on DMS-114, in the assay with HOP-18, with XF498, with SNB-78, with DLD-1 and with KM-20L2 was > 100 µM (inactive) throughout. The GI50 in the assay on LXFL 529 and with DMS-273 was > 100 µM (inactive) each time.
On to `CN(C(=O)c1ccco1)C(=S)N1CCN(c2ccccc2)CC1`, for which the GI50 with DMS-114, in the assay with HOP-18, in the assay on XF498, in the assay on DLD-1, in the assay on KM-20L2 and with LXFL 529 was > 100 µM (inactive) throughout. Also, the GI50 in the assay with DMS-273 was > 100 µM (inactive).
Regarding `COc1ccc(NC(=O)CC(=O)N/N=C(\C)c2cc3ccccc3oc2=O)cc1`, the GI50 with DMS-114 was > 100 µM (inactive); with HOP-18, 80.5 µM (inactive); in the assay on DLD-1, > 100 µM (inactive); in the assay on KM-20L2 it was > 100 µM (inactive); in the assay on DMS-273 it was > 100 µM (inactive).
`CCCCCCCCCCCCCCCC(=O)NCC(COP(=O)([O-])OCC[N+](C)(C)C)OCC` (configuration not stated): the GI50 in the assay on DMS-114 is 16 µM (inactive); in the assay with HOP-18, 0.92 µM (active); with XF498, 12.1 µM (inactive); with SNB-78, 14.1 µM (inactive); in the assay on DLD-1, 5.19 µM (inactive); in the assay on KM-20L2 it was 4.01 µM (inactive). The GI50 is 13.1 µM (inactive) with LXFL 529 and 2.36 µM (inactive) in the assay on DMS-273.
`C=CCc1ccc(O)c(-c2cc(C3Oc4c(-c5cc(CC=C)ccc5O)cc(O)cc4[C@@H]3CO)ccc2O)c1` (some centres not stated): the GI50 in the assay on DMS-114 is 14.9 µM (inactive); in the assay on HOP-18, 32.4 µM (inactive); with SNB-78, 39.9 µM (inactive); with DLD-1, 18 µM (inactive); in the assay on KM-20L2 it was 26.7 µM (inactive); with LXFL 529 it was 19.8 µM (inactive). In addition, the GI50 in the assay with DMS-273 was 20.4 µM (inactive).
As for `O=c1c2ccccc2nc(-c2ccccc2Cl)n1NC1OC(CO)C(O)C(O)C1O` (configuration not stated), the GI50 is > 100 µM (inactive) in the assay on DMS-114; 32 µM (inactive) in the assay on HOP-18; > 100 µM (inactive) in the assay with XF498; > 100 µM (inactive) with SNB-78; > 100 µM (inactive) in the assay on DLD-1; > 100 µM (inactive) in the assay on KM-20L2. Besides, the GI50 in the assay on LXFL 529 and in the assay with DMS-273 was > 100 µM (inactive) each time.
As for `NC(=O)c1nc(-c2ccc(Cl)c(Cl)c2)nc2ccccc12`, the GI50 in the assay with DMS-114 is > 20.4 µM (inactive); with HOP-18, 34.8 µM (inactive); with XF498 it was 57.8 µM (inactive); in the assay on SNB-78 it was > 23.7 µM (inactive); in the assay on DLD-1, > 22.8 µM (inactive); with KM-20L2, > 100 µM (inactive). Moreover, the GI50 in the assay on LXFL 529 was > 26.4 µM (inactive).
On to `COc1ccc(C(=O)C(c2ccc(OC)cc2)C2(O)C(=O)Nc3c(C)cc(Cl)cc32)cc1` (configuration not stated), for which the GI50 in the assay with SNB-78 was > 100 µM (inactive); with DLD-1, 76.4 µM (inactive); in the assay with RXF 631, 59 µM (inactive); in the assay on KM-20L2, > 100 µM (inactive); in the assay on LXFL 529, 37.7 µM (inactive); in the assay with DMS-273 it was 58.9 µM (inactive).
`COC12C(COC(=O)NCCO)C3=C(C(=O)C(C)=C(N)C3=O)N1CC1NC12` (configuration not stated): the GI50 is 22.9 µM (inactive) with DMS-114; 36.8 µM (inactive) in the assay on HOP-18; 80.5 µM (inactive) in the assay on SNB-78; 41.4 µM (inactive) with DLD-1; 37.9 µM (inactive) in the assay with KM-20L2; 56.2 µM (inactive) with LXFL 529. The GI50 in the assay with DMS-273 is 2.52 µM (inactive).
On to `OC12CCC3(OC4CCCCO4)c4ccccc4C3C1c1ccccc12` (configuration not stated), for which the GI50 with DMS-114 is 87.5 µM (inactive); with HOP-18, > 100 µM (inactive); with XF498, 31.8 µM (inactive); with SNB-78, > 100 µM (inactive); with KM-20L2, 59.3 µM (inactive); in the assay with LXFL 529, 41.2 µM (inactive). Further, in the assay with DMS-273, the GI50 was 61.7 µM (inactive).
Consider `COC(=O)C(=O)C(C(=O)C(=O)Nc1ccccc1[N+](=O)[O-])c1nc2ccc([N+](=O)[O-])cc2nc1O` (configuration not stated), for which the GI50 in the assay with DMS-114, in the assay with HOP-18, with SNB-78, in the assay with RXF 631, with KM-20L2 and in the assay on LXFL 529 was > 100 µM (inactive) throughout. In addition, the GI50 in the assay with DMS-273 was > 100 µM (inactive).
In the case of `CN(C)/N=N/c1cccc(C(N)=O)c1`, the GI50 in the assay on DMS-114, in the assay with HOP-18, in the assay with XF498, with SNB-78, in the assay on DLD-1 and in the assay with KM-20L2 was > 100 µM (inactive) each time. Also, the GI50 with LXFL 529 and with DMS-273 was > 100 µM (inactive) in each case.
On to `C=CCC1C(=O)CC2(C)CC(=O)C(CC=C)C12C` (configuration not stated), for which the GI50 in the assay on DMS-114, with HOP-18, with XF498, in the assay with SNB-78, with DLD-1 and in the assay with KM-20L2 was > 100 µM (inactive) each time. For the same compound, the GI50 in the assay on LXFL 529 and in the assay on DMS-273 was > 100 µM (inactive) each time.
Take `CCCCCCCCCCCCCCCCCCOCC(COCCOCC[N+]1(CCCCCC(=O)[O-])CCCC1)Oc1ncccn1` (configuration not stated): the GI50 was 1.21 µM (inactive) in the assay with DMS-114; 4.85 µM (inactive) in the assay with HOP-18; 2.1 µM (inactive) in the assay with XF498; 2.56 µM (inactive) in the assay on SNB-78; 2.18 µM (inactive) in the assay on DLD-1; 1.4 µM (inactive) with KM-20L2. Further, the GI50 with DMS-273 was 0.37 µM (active).
`CSc1nnc(COc2ccc(Cl)cc2)o1`: the GI50 in the assay with DMS-114, in the assay with XF498, in the assay on SNB-78, in the assay with DLD-1, with KM-20L2 and with LXFL 529 was > 100 µM (inactive) in each case. The GI50 with DMS-273 was > 100 µM (inactive).
Regarding `CC1=CC(=O)c2ccc3c4ccccc4n(C)c3c2C1=O`, the GI50 in the assay with DMS-114 is 27.7 µM (inactive); in the assay on HOP-18, 4.4 µM (inactive); in the assay with XF498, 29.2 µM (inactive); in the assay with SNB-78 it was 90.8 µM (inactive); in the assay on DLD-1 it was 62.8 µM (inactive); with LXFL 529, 25.8 µM (inactive). In the assay with DMS-273, the GI50 was 43.4 µM (inactive).
On to `Cn1cnc([N+](=O)[O-])c1Sc1nnnn1C`, for which the GI50 in the assay on DMS-114 was 17 µM (inactive); in the assay on HOP-18, 9.86 µM (inactive); in the assay with XF498 it was 15.6 µM (inactive); in the assay with SNB-78, 12.7 µM (inactive); in the assay with DLD-1, 14.5 µM (inactive); in the assay on LXFL 529 it was 12.1 µM (inactive). In addition, the GI50 in the assay on DMS-273 is 17.7 µM (inactive).
Regarding `CSC1C=C(C(C)C)CCC1(C)SC` (configuration not stated), the GI50 is 15.7 µM (inactive) in the assay with DMS-114; 19.6 µM (inactive) in the assay on XF498; 16.5 µM (inactive) with SNB-78; 18 µM (inactive) in the assay with DLD-1; 28.2 µM (inactive) in the assay on KM-20L2; 18.4 µM (inactive) with LXFL 529. In addition, the GI50 in the assay with DMS-273 was 19 µM (inactive).
Turning to `CN(/N=C\c1ccnc2ccccc12)c1ccccc1`, the GI50 in the assay with DMS-114 was 22.7 µM (inactive); with HOP-18, 79.1 µM (inactive); in the assay on XF498 it was 29.7 µM (inactive); in the assay on SNB-78, 34.4 µM (inactive); with DLD-1, 21.5 µM (inactive); in the assay on LXFL 529, 26.1 µM (inactive). In addition, in the assay on DMS-273, the GI50 is 20 µM (inactive).
As to `c1ccc(SC(Sc2ccccc2)=C2CCC2)cc1`, the GI50 was > 100 µM (inactive) in the assay on DMS-114; 49.8 µM (inactive) in the assay on XF498; > 100 µM (inactive) in the assay with SNB-78; > 100 µM (inactive) with DLD-1; > 100 µM (inactive) in the assay on RXF 631; > 100 µM (inactive) in the assay with KM-20L2. Moreover, in the assay on DMS-273, the GI50 is > 100 µM (inactive).
